Data from patent US10328075B2, “Method of treatment and compounds for use therein” (Baker Heart and Diabetes Institute, priority 2015, dated 2019).
Entries after “also recorded” stand apart in the source; their conditions may differ.

Tests used:
Format in all cases: cell-based
hFPR1 = target: T1, hFPR1 (Homo sapiens, UniProt P21462); assay: ERK1/2 phosphorylation (AlphaScreen SureFire) in hFPR1-FlpIn-CHO cells
T1 construct: expressed in transfected cells
T1 sequence (P21462 1-350): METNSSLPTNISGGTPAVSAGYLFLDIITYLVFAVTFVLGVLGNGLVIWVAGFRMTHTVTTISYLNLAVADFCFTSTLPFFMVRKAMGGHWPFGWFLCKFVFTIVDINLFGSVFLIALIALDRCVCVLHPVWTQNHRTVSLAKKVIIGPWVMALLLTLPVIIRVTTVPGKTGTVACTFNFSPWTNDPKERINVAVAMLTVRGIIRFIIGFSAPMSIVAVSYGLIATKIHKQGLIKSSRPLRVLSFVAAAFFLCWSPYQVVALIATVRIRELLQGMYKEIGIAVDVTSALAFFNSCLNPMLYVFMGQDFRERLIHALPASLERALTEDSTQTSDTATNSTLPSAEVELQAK
Text: (§1) cDNDA construct and generation of stable cell lines: cDNA in pcDNA3.1^+ encoding the human formyl peptide receptors (FPR) subtypes, hFPR1, hFPR2 and hFPR3 was obtained from Invitrogen. The sequences for 3 hFPR receptors were amplified by PCR and cloned into the Gateway entry vector, pDONR202™, using the BP clonase enzyme mix, according to the manufactures' instructions (Invitrogen Inc, Carlsbad, Calif., USA). All hFPR receptors constructs in pDONR201™ were subsequently transfected into the pEF5/FRT/V5/dest vector using the LR clonase enzyme mix (Invitrogen). Receptor constructs (pEF5/FRT/V5/dest) were used to transfect FIp-In CHO cells as described previously (Valant C et al., PNAS, 2014). Cells were selected using 500 μg/mL hydromycin to generate cell lines stably expressing each receptor construct. Cells were maintained and cultured in high glucose DMEM supplemented with 10% FBS, 16 mM HEPES and 500 μg/mL hydromycin at 37° C. under a humidified atmosphere containing 5% CO2.
(§2) In the various assays described below, cells were plated into 96-well transparent cell culture plates at 4×10^4 cells per well, cultured overnight in serum-free media at 37° C. in 5% CO2.
(§3) Measurement of extracellular signal regulated kinase 1 and 2 phosphorylation (pERK1/2): Initial ERK1/2 phosphorylation at Thr202/Tyr204 time-course experiments were performed to determine the time at which ERK1/2 phosphorylation was maximal after stimulation by each agonist. Cells were seeded onto transparent 96-well cell culture plates at 4×10^4 cells per well. After 6 h, cells were washed once with PBS, and then incubated in serum-free DMEM overnight, to allow FBS-stimulated phosphorylated ERK1/2 levels to subside. […] 10% (v/v) FBS was used as a positive control, with vehicle controls also included. The reaction was terminated by removal of study drugs and lysis of cells with 100 μL of SureFire lysis buffer (TGR Biosciences). Cell were lysed in SureFire lysis buffer and transferred to 384-well opaque proxiplates. Under low-light conditions, a 1:120 (v:v) dilution of AlphaScreen beads (both acceptor and donor):Surefire reaction buffer was prepared, which was mixed with the activation buffer in a ratio of 6:1 (v:v), respectively. Plates were incubated in the dark at 37° C. for 1 h before the fluorescence signal was measured by a Fusion-α plate reader (PerkinElmer Life and Analytical Sciences, Foster city, CA, USA) with standard AlphaScreen settings. Data were normalized to the maximal response elicited by 10% (v/v) FBS at the same time point.
(§4) Receptor mediated pERK1/2 levels were determined using the AlphaScreen™ ERK1/2 SureFire™ kit, as described previously (Keov, P et al., 2014). For all experiments, 10% FBS was used as internal positive control to stimulate pERK1/2, and which the maximum responses were used for normalization of data, whilst vehicle was used as negative control.
(§5) Data analysis: All data were analysed using GraphPad Prism 6.0 (GraphPad Software, San Deigo, Calif., USA). Where appropriate, concentration-response curves were fitted to derive the maximal agonist effect (Emax), and the ligand potency estimate (pEC50), where Emax is the maximal possible response of the system (not the agonist), basal is the basal level of response in the absence of agonist, and pEC50 is the negative logarithm of the agonist concentration that gives a response halfway between Emax and basal.
(§6) In the present study, FIp-IN CHO cells and Gateway plasmid were obtained from Invitrogen Inc (Carlsbad, Calif., USA). The sequences for all 3 known human FPRs (hFPR1, hFPR2 and hFPR3) were amplified by PCR and cloned into the Gateway entry vector, pDONR202TM, using the BP clonase enzyme mix, according to the manufacturers' instructions. The hFPR pDONR201TM constructs were subsequently transfected into the pEF5/FRT/V5/dest vector using the LR clonase enzyme mix (Invitrogen).

hFPR2 = target: T2, hFPR2 (Homo sapiens, UniProt P25090); assay: ERK1/2 phosphorylation (AlphaScreen SureFire) in hFPR2-FlpIn-CHO cells
T2 construct: expressed in transfected cells
T2 sequence (P25090 1-351): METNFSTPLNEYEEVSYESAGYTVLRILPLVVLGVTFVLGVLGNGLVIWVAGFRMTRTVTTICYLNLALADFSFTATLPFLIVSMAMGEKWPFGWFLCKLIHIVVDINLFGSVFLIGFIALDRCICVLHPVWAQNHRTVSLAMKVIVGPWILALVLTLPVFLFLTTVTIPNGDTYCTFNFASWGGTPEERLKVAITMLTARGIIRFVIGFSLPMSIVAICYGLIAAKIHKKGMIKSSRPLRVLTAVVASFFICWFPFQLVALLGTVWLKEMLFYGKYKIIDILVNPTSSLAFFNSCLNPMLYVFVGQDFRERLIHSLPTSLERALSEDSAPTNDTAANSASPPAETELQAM
Text: as §1, §2, §3, §4, §5, §6

hFPR3 = target: T3, hFPR3 (Homo sapiens, UniProt P25089); assay: Agonist responses (ERK1/2 phosphorylation) in hFPR3-CHO cells
T3 construct: expressed in transfected cells
T3 sequence (P25089 1-353): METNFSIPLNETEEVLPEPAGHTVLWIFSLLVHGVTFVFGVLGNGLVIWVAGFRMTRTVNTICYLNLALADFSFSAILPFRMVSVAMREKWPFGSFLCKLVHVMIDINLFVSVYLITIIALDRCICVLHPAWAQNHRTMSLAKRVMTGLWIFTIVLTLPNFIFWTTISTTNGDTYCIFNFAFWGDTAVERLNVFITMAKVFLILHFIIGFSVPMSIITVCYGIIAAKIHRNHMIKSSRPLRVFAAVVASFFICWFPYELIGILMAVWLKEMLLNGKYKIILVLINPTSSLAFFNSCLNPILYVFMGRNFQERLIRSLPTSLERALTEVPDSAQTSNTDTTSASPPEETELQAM
Text: as §1, with “Cells were maintained and cultured in high glucose DMEM supplemented with 10% FBS, 16 mM HEPES and 500 μg/mL hydromycin at 37° C. under a humidified atmosphere containing 5% CO2.” left out
Measurement of extracellular signal regulated kinase 1 and 2 phosphorylation (pERK1/2): Initial ERK1/2 phosphorylation at Thr202/Tyr204 time-course experiments were performed to determine the time at which ERK1/2 phosphorylation was maximal after stimulation by each agonist. […] Plates were incubated in the dark at 37° C. for 1 h before the fluorescence signal was measured by a Fusion-α plate reader (PerkinElmer Life and Analytical Sciences, Foster city, CA, USA) with standard AlphaScreen settings. […]

With `CCCCC[C@H](O)/C=C/C=C\C=C\C=C\[C@@H](O)[C@@H](O)CCCC(=O)O` [LxA4, lipoxin-A4] the “ERK-phosphorylation at hFPR1 (in words)” value (hFPR1) was “failed to stimulate; also recorded: without effect”, the “ERK-phosphorylation at hFPR2 (in words)” value (hFPR2) was “failed to stimulate; also recorded: without effect” and the “Agonist response (ERK-phosphorylation) in hFPR3-CHO cells” value (hFPR3) was “failed to stimulate; also recorded: without effect”.
